One data set has as its system RIN 1046-38 cells. The settings on record: RIN 1046-38 cells (Clark, et al., 1990); cited from earlier work.
A further data set relates to parental AtT-20ins cells. Briefly: Insulin secretion, static 3 hour incubation, parental cells. In kind it is cell-based. Particulars: 0-20 mM glucose, 3 hours static incubation.
Data set [1] relates to GLUT-2 transfected AtT-20ins cells (line CGT-6). Nature of the data set: cells. Particulars: Mus musculus, 3 h, read-out: maximal stimulation of insulin release relative to 0 mM glucose.
The subject of data set [2] is CGT-6 (GLUT-2 expressing AtT-20ins) cells. Briefly: cells.
In data set [3] the target is T1, high Km glucose transport activity (GLUT-2) of isolated, dispersed islets of Langerhans (Rattus norvegicus, UniProt P12336).
T1 construct: host or cells: isolated, dispersed islets of Langerhans (Johnson et al., 1990a)
T1 sequence (P12336 1-522): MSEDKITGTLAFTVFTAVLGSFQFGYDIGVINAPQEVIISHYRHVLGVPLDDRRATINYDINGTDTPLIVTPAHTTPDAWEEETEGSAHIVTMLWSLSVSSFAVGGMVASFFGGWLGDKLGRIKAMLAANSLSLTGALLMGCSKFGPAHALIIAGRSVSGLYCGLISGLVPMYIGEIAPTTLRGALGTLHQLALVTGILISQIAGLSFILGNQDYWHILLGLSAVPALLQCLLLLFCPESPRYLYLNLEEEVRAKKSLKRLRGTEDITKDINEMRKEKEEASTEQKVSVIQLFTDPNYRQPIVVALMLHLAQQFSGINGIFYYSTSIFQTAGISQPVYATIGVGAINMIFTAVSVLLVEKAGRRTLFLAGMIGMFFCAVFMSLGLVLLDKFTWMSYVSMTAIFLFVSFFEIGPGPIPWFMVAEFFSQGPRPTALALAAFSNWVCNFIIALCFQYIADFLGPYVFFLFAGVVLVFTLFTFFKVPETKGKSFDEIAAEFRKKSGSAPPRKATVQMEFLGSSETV
The settings on record: cited from earlier work.

For data set [4], the target named is T2, glucokinase (Hexokinase IV) (Homo sapiens, UniProt P35557).
T2 sequence (P35557 1-465): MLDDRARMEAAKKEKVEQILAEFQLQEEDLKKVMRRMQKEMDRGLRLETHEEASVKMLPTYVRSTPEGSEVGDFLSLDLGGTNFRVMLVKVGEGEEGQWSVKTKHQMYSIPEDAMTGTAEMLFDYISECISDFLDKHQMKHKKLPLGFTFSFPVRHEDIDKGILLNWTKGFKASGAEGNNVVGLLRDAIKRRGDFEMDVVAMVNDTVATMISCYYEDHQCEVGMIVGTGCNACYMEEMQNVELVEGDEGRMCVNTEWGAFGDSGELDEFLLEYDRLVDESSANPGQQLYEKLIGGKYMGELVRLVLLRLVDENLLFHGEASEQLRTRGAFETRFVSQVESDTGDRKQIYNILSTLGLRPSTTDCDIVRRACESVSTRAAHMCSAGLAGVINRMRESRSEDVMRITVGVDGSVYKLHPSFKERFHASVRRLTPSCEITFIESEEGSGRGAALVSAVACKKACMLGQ
Particulars: read-out: Km for glucose; cited from earlier work.

The target of data set [5] is T3, rat islet GLUT-2 glucose transporter expressed in AtT-20ins cells (lines CGT-5, CGT-6) (Rattus norvegicus, UniProt P12336).
T3 sequence (P12336 1-522): T1 sequence (P12336 1-522)

Data set [6] concerns the target T4, glucokinase, islet isoform (Rattus norvegicus, UniProt P17712).
T4 sequence (P17712 1-465): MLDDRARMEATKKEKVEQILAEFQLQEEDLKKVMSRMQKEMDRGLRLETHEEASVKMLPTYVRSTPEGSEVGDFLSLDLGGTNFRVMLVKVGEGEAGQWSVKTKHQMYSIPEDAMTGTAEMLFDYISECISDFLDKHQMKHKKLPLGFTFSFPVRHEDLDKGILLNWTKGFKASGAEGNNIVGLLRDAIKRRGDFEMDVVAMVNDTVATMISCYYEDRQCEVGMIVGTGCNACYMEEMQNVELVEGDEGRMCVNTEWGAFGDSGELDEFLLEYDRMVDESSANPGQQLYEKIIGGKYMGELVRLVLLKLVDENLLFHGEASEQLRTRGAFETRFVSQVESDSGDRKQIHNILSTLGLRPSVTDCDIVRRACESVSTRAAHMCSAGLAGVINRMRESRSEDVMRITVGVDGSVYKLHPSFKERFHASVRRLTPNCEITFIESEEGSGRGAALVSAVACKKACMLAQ
Particulars: read-out: Km for glucose; cited from earlier work.

The target of data set [7] is T5, GLUT-1 low Km glucose transporter of untransfected parental AtT-20ins cells (Mus musculus, UniProt P17809).
T5 sequence (P17809 1-492): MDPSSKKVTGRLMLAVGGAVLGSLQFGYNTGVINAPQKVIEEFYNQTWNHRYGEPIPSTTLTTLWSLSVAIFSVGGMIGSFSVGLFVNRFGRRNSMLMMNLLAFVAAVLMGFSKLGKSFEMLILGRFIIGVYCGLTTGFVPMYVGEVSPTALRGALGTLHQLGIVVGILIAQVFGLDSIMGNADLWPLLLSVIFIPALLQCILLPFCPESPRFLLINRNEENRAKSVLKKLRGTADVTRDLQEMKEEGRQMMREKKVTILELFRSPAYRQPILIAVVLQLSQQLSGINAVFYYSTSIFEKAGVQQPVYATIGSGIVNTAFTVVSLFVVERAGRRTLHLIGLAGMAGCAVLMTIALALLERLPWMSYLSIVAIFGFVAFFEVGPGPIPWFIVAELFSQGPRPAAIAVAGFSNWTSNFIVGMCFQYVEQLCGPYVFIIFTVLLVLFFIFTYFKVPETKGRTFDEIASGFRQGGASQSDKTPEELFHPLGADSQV
Briefly: Glucose transport (3-O-methyl glucose uptake) in untransfected parental AtT-20ins cells. Particulars: untransfected parental AtT-20ins line. In kind it is cell-based.

Data set [8] relates to hexokinase (low Km Hexokinases I, II, and III). The settings on record: cited from earlier work.
In data set [9] the target is T6, glucokinase, liver isoform (Rattus norvegicus, UniProt P17712).
T6 sequence (P17712 1-465 isoform P17712-3): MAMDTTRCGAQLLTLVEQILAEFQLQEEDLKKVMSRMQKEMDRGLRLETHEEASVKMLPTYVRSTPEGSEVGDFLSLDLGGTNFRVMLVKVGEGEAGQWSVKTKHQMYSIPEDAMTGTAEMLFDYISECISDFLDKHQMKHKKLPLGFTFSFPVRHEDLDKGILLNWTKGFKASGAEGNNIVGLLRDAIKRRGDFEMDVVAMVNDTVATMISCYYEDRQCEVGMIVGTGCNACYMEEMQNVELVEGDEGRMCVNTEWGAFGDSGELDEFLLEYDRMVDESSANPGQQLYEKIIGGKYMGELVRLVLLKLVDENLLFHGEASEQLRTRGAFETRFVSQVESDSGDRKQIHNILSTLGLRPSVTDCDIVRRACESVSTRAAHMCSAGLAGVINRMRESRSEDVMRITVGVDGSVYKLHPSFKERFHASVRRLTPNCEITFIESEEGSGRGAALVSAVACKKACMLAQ
The settings on record: read-out: Km for glucose; cited from earlier work.

Substrate in data set [10]: OC[C@H]1OC(O)[C@H](O)[C@@H](O)[C@@H]1O
Nature of the data set: cells, lysate or membranes. The settings on record: 3-O-methyl glucose uptake, 37.0 °C.

Where [11] appears, read: lines CGT-5, CGT-6 stated together, 3-O-methyl glucose uptake.

These results are taken from US5792656A (priority 1995, dated 1998).

Where “and” joins values, the source holds several entries; their conditions need not be identical. Equal values may be shown once. Entries after “also recorded” stand apart in the source; their conditions may differ. Read-outs that look alike come from different tables or passages of the source.

The term Km denotes the concentration of substrate that gives half-maximal velocity. With `OC[C@H]1OC(O)[C@H](O)[C@@H](O)[C@@H]1O` (some centres unmarked) [glucose], in the data set on RIN 1046-38 cells, the “glucose concentration at which stimulation of insulin release is maximal” value is reported as 0.5 mM. Also, the “effect of glucose on insulin release” value in the data set on parental AtT-20ins cells is recorded as “no significant effect”. Further, in [1], the maximal fold induction was ~2.5. Further, the fold induction at 5000 µM came out at 3 in data set [2] (5 min, read-out: insulin secretion second plateau above pre-glucose level) and 10 in data set [2] (read-out: increase in insulin release, first phase, over baseline without glucose). For the same molecule, the Vmax in data set [3] (dispersed islets (Johnson, et al., 1990a)) is recorded as 24 mmoles/min/liter cell space; in [5] (line CGT-5, Lineweaver-Burke analysis), 25 mmoles/min/liter cell space; in [5] (line CGT-6, Lineweaver-Burke analysis), 17 mmoles/min/liter cell space; in data set [5] (setting [11]), 19 mmoles/min/liter cell space; in [7], 0.5 mmoles/min/liter cell space. Further, the Km in data set [3] (read-out: Km for glucose, dispersed islets (Johnson, et al., 1990a)) is 18 mM; in data set [4] it was ~8 mM and 8 to 10 mM; in data set [6], 8 to 10 mM and ~10 mM; in data set [8] (read-out: Km for glucose, Hexokinases I, II, and III), ~0.05 mM; in data set [9], 8 to 10 mM. For the same molecule, the “estimated Km for glucose” value in data set [5] (setting [11]) is listed as 18 mM.

Consider `O=P(O)(O)OC[C@H]1OC(O)[C@H](O)[C@@H](O)[C@@H]1O` (some centres unmarked) [glucose-6-phosphate, reference compound], for which, in data set [8] (10 mM glucose-6-phosphate), the “inhibition of hexokinase by glucose-6-phosphate” value is recorded as “potently inhibits; also recorded: potent inhibitor”.

B1: GLUT-1 low Km glucose transporter of untransfected parental AtT-20ins cells (Mus musculus) (protein)
chain: T5 sequence (P17809 1-492)
For B1, the Km in data set [10] (other: untransfected parental AtT-20ins line) is 2 mM.

B2: rat islet GLUT-2 glucose transporter expressed in AtT-20ins cells (lines CGT-5, CGT-6) (Rattus norvegicus) (protein)
chain: T1 sequence (P12336 1-522)
With B2, the Km amounted to 16 mM in [10] (other: line CGT-5, Lineweaver-Burke analysis) and 17 mM in [10] (other: line CGT-6, Lineweaver-Burke analysis).
